Patent US7129198B1, “Use of benzotriazole UV absorbers” (Ciba Specialty Chemicals Corporation, priority 1999, dated 2006)

What was measured:
Assay in all cases: MIC in microtitre plates
Type in all cases: cell-based
[1] = test system: S. epidermidis ATCC 12228; settings: Staphylococcus epidermidis, ATCC12228, 48 hours at 37° C., ≦20% growth
Protocol: (§1) Mycological slant agar for the preculture of moulds. The test substances are predissolved in dimethyl sulfoxide (DMSO) and tested in a dilution series of 1:2. The test organisms are cultured overnight in CASO bouillon and rinsed off with 10 ml of 0.85% sodium chloride solution (+0.1% TritonX-100). The test organisms are adjusted to an organism count of 1–5×10^6 CFU/ml with 0.85% sodium chloride solution. The test substances are prepipetted into microtitre plates in an amount of 8 μl per well. Previously diluted organism suspensions are diluted 1:100 in CASO bouillon and added to the test substances in an amount of 192 μl per well. The test batches are incubated for 48 hours at 37° C. After incubation, the growth is determined by reference to the turbidity of the test batches (optical density) at 620 nm in a microplate reader. The minimum inhibitory concentration (MIC value) is the concentration of substance at which (compared with the growth of the control) an appreciable inhibition of the growth (≦20% growth) of the test organisms is ascertained. One microtitre plate is used for each test organism and substance concentration. All substances are tested in duplicate.

[2] = test system: Candida albicans ATCC 10259; settings: ATCC10259, 48 hours at 37° C., ≦20% growth
Protocol: as §1

[3] = test system: Trichoderma longibrachiatum DSM 768; settings: DSM768, 48 hours at 37° C., ≦20% growth
Protocol: as §1

[4] = test system: Micrococcus luteus ATCC 9341; settings: ATCC9341, 48 hours at 37° C., ≦20% growth
Protocol: as §1

[5] = test system: Salmonella choleraesuis ATCC 9184; settings: Salmonella enterica, 48 hours at 37° C., ≦20% growth
Protocol: as §1

[6] = test system: Enterococcus hirae ATCC 10541; settings: ATCC10541, 48 hours at 37° C., ≦20% growth
Protocol: as §1

[7] = test system: Klebsiella pneumoniae ATCC 4352; settings: ATCC4352, 48 hours at 37° C., ≦20% growth
Protocol: as §1

[8] = test system: Epidermophyton floccosum DSM 10709; settings: DSM10709, 48 hours at 37° C., ≦20% growth
Protocol: as §1

[9] = test system: Trichophyton mentagrophytes ATCC 9533; settings: ATCC9533, 48 hours at 37° C., ≦20% growth
Protocol: as §1

P. ovale ATCC 14521 = settings: Pityrosporum ovale, ATCC14521, 48 hours at 37° C., ≦20% growth
Protocol: as §1

[10] = test system: Trichophyton rubrum DSM 4167; settings: DSM4167, 48 hours at 37° C., ≦20% growth
Protocol: as §1

[11] = test system: Corynebacterium xerosis ATCC 373; settings: ATCC373, 48 hours at 37° C., ≦20% growth
Protocol: as §1

[12] = test system: Streptococcus mutans ATCC 25175; settings: ATCC25175, 48 hours at 37° C., ≦20% growth
Protocol: as §1

CCCCCCCC[N+](CC)(CC)CCCNC(=O)CCc1cc(-n2nc3ccccc3n2)c(O)c(C(C)(C)C)c1.[Br-] [compound of formula (108)]
MIC [1]: 3.12 µg/mL | MIC [2]: 6.25 µg/mL | MIC [3]: 50 µg/mL | MIC [4]: 3.12 µg/mL | MIC [5]: > 100 µg/mL | MIC [6]: 3.12 µg/mL | MIC [7]: > 100 µg/mL | MIC [8]: 12.5 µg/mL | MIC [9]: 100 µg/mL | MIC (P. ovale ATCC 14521): > 25 µg/mL | MIC [10]: 25 µg/mL | MIC [11]: 3.12 µg/mL | MIC [12]: 3.12 µg/mL
